Test results as given in patent publication US20150183737A1, “COMPOSITIONS AND METHODS FOR SUBSTRATE-SELECTIVE INHIBITION OF ENDOCANNABINOID OXYGENATION” (Vanderbilt University, priority 2012, published 2015).

Key:
[1] = target: T1, humanized rat FAAH (Rattus norvegicus, UniProt P97612, A377T/F194Y/I491V/L192F/S435N/V495M); test: FAAH activity (Compound A); format: biochemical; conditions: in vitro
T1 sequence (P97612 30-579 L192F/F194Y/A377T/S435N/I491V/V495M limits assumed): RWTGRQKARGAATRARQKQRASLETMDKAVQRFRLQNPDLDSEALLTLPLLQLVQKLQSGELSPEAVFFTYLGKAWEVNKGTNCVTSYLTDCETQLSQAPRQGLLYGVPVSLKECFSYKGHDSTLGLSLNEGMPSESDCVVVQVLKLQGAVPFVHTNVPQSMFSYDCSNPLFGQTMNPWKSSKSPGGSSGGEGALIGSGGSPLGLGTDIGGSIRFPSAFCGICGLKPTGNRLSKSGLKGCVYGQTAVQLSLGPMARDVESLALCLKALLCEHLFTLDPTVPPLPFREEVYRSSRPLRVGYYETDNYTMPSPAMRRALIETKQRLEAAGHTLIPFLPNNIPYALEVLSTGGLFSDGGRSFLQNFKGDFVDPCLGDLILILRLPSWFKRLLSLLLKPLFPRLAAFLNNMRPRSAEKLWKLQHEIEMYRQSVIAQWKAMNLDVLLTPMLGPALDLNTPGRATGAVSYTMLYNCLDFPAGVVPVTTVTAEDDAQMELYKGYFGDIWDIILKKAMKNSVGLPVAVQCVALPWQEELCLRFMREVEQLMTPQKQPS

[2] = system: ICR mice; test: Light-dark box; format: in vivo
[3] = Detection of Compound A in brain extract; conditions: 2 hours after i.p. injection, LC-MS/MS

For `COc1ccc2c(c1)c(CC(=O)N1CCOCC1)c(C)n2C(=O)c1ccc(Cl)cc1` [Compound A, 2-[1-(4-Chloro-benzoyl)-5-methoxy-2-methyl-1H-indol-3-yl]-1-morpholin-4-yl-ethanone], the “Inhibition of FAAH” value [1] was “did not inhibit”, the Light-zone time ([2]; 10 mg/kg) was “significantly increased” and the “Number of light-zone entries” value ([2]; 10 mg/kg) was “significantly increased”. The “Overall locomotor activity in the light-dark box” value ([2]; 10 mg/kg) was “without significantly affecting”, the “Anxiolytic effects in the light-dark box with Rimonabant” value ([2]; Rimonabant 3 mg/kg) was “blocked” and the “Indomethacin in brain extract after Compound A treatment” value [3] was “not detected”. For the same molecule, the “Presence of compound in brain” value [3] was “present in the brain”.
